Target: T1, RSK2 (Homo sapiens, UniProt P51812)
T1 construct: gene RPS6KA3
Assay: in vitro kinase assay with recombinant active RSK2 and ATF1 substrate (Western blot); supported by pull-down of recombinant RSK2 with carnosol-Sepharose 4B beads
Assay type: biochemical

T1 sequence (P51812 whole entry): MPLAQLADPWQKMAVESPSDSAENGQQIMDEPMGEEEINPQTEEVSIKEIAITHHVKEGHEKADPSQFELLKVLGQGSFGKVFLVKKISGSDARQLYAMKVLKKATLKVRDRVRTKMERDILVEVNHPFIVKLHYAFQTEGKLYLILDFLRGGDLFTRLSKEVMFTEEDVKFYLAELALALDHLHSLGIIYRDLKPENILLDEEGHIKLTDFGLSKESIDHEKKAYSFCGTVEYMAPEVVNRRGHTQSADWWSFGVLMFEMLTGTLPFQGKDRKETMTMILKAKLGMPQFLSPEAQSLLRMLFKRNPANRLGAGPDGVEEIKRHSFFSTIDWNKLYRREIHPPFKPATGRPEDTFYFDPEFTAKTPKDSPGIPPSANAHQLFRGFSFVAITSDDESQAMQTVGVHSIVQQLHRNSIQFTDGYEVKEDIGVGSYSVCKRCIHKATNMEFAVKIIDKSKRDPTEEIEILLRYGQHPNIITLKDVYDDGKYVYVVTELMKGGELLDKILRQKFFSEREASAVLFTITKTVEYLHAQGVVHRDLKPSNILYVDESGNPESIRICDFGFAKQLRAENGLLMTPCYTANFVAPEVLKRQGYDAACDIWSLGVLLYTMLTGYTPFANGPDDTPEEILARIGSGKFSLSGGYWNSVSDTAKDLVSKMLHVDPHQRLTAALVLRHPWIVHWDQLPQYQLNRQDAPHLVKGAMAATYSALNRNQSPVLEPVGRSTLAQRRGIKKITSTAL

IC50: ~5.5 µM
Structure (SMILES): CC(C)c1cc2c(c(O)c1O)[C@@]13CCCC(C)(C)[C@@H]1C[C@@H]2OC3=O [Carnosol]

From article PMC6188138, “Carnosol suppresses patient-derived gastric tumor growth by targeting RSK2” (Oncotarget, 2018)
